Holding throughout (experiment): relative viability (nuclei count vs DMSO), 5 days (fraction); higher = more cells survive
Compound in the assay “RO-3306 + Foretinib”: C1=CC2=C(C=CC(=C2)C=C3C(=O)NC(=NCC4=CC=CS4)S3)N=C1 [RO-3306] + COc1cc2c(Oc3ccc(NC(=O)C4(C(=O)Nc5ccc(F)cc5)CC4)cc3F)ccnc2cc1OCCCN1CCOCC1 [Foretinib] (partner 0.25 µM)
In short, it runs like this: (§1)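 Relative viability equals treated-well nuclei counts divided by vehicle-well nuclei counts. Counts came from 4× images of lung cancer cell lines grown in 1536-well plates for 5 days after pin-tool dosing on the day after seeding. Dosing used one drug alone or a fixed anchor-drug dose plus five library-drug doses (not always all listed) in √10 steps, and values are medians of duplicate plates.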

Compound in the assay “RO-3306 + Olaparib”: C1=CC2=C(C=CC(=C2)C=C3C(=O)NC(=NCC4=CC=CS4)S3)N=C1 [RO-3306] + O=C(c1cc(Cc2n[nH]c(=O)c3ccccc23)ccc1F)N1CCN(C(=O)C2CC2)CC1 [Olaparib] (partner 8 µM)
Summed up: as §1

Compound in assay [1]: O=S(=O)(c1ccccc1)N(CC(F)(F)F)c1ccc(C(O)(C(F)(F)F)C(F)(F)F)cc1 + Cc1cc(Nc2cc(N3CCN(C)CC3)nc(Sc3ccc(NC(=O)C4CC4)cc3)n2)n[nH]1 [Tozasertib] (partner 0.1 µM)
Summed up: as §1

Compound in assay [2]: O=S(=O)(c1ccccc1)N(CC(F)(F)F)c1ccc(C(O)(C(F)(F)F)C(F)(F)F)cc1 + Cc1nc(NC(=O)N2CCC[C@H]2C(N)=O)sc1-c1ccnc(C(C)(C)C(F)(F)F)c1 [Alpelisib] (partner 2 µM)
Summed up:
as §1

Compound in assay [3]: O=S(=O)(c1ccccc1)N(CC(F)(F)F)c1ccc(C(O)(C(F)(F)F)C(F)(F)F)cc1 + O=C(c1cc(Cc2n[nH]c(=O)c3ccccc23)ccc1F)N1CCN(C(=O)C2CC2)CC1 [Olaparib] (partner 8 µM)
Summed up:
as §1

The results in this text go back to the supplement of paper PMC10307832.

On to NCI-H3122, for which the relative viability was 0.987 with RO-3306 + Foretinib (first compound 0.01 µM); 0.984 with RO-3306 + Foretinib (first compound 0.03162 µM); 0.94 with RO-3306 + Foretinib (first compound 0.1 µM); 0.969 with RO-3306 + Foretinib (first compound 0.3162 µM); 1.09 with RO-3306 + Foretinib (first compound 1 µM); 0.707 with RO-3306 + Olaparib (first compound 0.01 µM). In addition, the relative viability in the assay with RO-3306 + Olaparib (first compound 0.03162 µM) was determined as 0.561; with RO-3306 + Olaparib (first compound 0.1 µM), 0.604; in the assay with RO-3306 + Olaparib (first compound 0.3162 µM), 0.61; with RO-3306 + Olaparib (first compound 1 µM), 0.604; in assay [1] (first compound 0.8 µM), 0.419; in assay [1] (first compound 2.53 µM) it was 0.424. Also, the relative viability was determined as 0.489 in assay [1] (first compound 8 µM); 0.744 in assay [2] (first compound 0.8 µM); 0.627 in assay [2] (first compound 2.53 µM); 0.672 in assay [2] (first compound 8 µM); 0.678 in assay [3] (first compound 0.8 µM); 0.599 in assay [3] (first compound 2.53 µM). Moreover, in assay [3] (first compound 8 µM), the relative viability turned out to be 0.654.
As to CAL-12T, the relative viability turned out to be 1.18 with RO-3306 + Foretinib (first compound 0.01 µM); 1.06 with RO-3306 + Foretinib (first compound 0.03162 µM); 1.16 with RO-3306 + Foretinib (first compound 0.1 µM); 1.07 with RO-3306 + Foretinib (first compound 0.3162 µM); 1.23 with RO-3306 + Foretinib (first compound 1 µM); 0.808 with RO-3306 + Olaparib (first compound 0.01 µM). Further, the relative viability stood at 0.717 with RO-3306 + Olaparib (first compound 0.03162 µM); 0.668 in the assay with RO-3306 + Olaparib (first compound 0.1 µM); 0.777 with RO-3306 + Olaparib (first compound 0.3162 µM); 0.737 with RO-3306 + Olaparib (first compound 1 µM); 0.299 in assay [1] (first compound 0.8 µM); 0.331 in assay [1] (first compound 2.53 µM). Further, the relative viability turned out to be 0.242 in assay [1] (first compound 8 µM); 1.52 in assay [2] (first compound 0.8 µM); 1.13 in assay [2] (first compound 2.53 µM); 1.02 in assay [2] (first compound 8 µM); 0.686 in assay [3] (first compound 0.8 µM); 0.616 in assay [3] (first compound 2.53 µM). Besides, the relative viability in assay [3] (first compound 8 µM) amounted to 0.591.
For the cell line NCI-H2023, the relative viability with RO-3306 + Foretinib (first compound 0.01 µM) is 1.17; with RO-3306 + Foretinib (first compound 0.03162 µM), 0.71; with RO-3306 + Foretinib (first compound 0.1 µM), 0.818; with RO-3306 + Foretinib (first compound 0.3162 µM) it was 0.702; with RO-3306 + Foretinib (first compound 1 µM), 0.943; with RO-3306 + Olaparib (first compound 0.01 µM), 0.469. Besides, the relative viability is 0.437 with RO-3306 + Olaparib (first compound 0.03162 µM); 0.422 with RO-3306 + Olaparib (first compound 0.1 µM); 0.463 with RO-3306 + Olaparib (first compound 0.3162 µM); 0.379 with RO-3306 + Olaparib (first compound 1 µM); 0.335 in assay [1] (first compound 0.8 µM); 0.289 in assay [1] (first compound 2.53 µM). For the same cell line, the relative viability in assay [1] (first compound 8 µM) amounted to 0.249; in assay [2] (first compound 0.8 µM), 0.574; in assay [2] (first compound 2.53 µM) it was 0.606; in assay [2] (first compound 8 µM) it was 0.506; in assay [3] (first compound 0.8 µM) it was 0.601; in assay [3] (first compound 2.53 µM), 0.48. The relative viability in assay [3] (first compound 8 µM) was found to be 0.441.
Take NCI-H1944: the relative viability with RO-3306 + Foretinib (first compound 0.01 µM) amounted to 0.966; with RO-3306 + Foretinib (first compound 0.03162 µM), 0.884; in the assay with RO-3306 + Foretinib (first compound 0.1 µM) it was 0.818; with RO-3306 + Foretinib (first compound 0.3162 µM), 0.92; with RO-3306 + Foretinib (first compound 1 µM), 0.915; in the assay with RO-3306 + Olaparib (first compound 0.01 µM) it was 0.443. Moreover, the relative viability came out at 0.439 in the assay with RO-3306 + Olaparib (first compound 0.03162 µM); 0.346 in the assay with RO-3306 + Olaparib (first compound 0.1 µM); 0.414 with RO-3306 + Olaparib (first compound 0.3162 µM); 0.433 with RO-3306 + Olaparib (first compound 1 µM); 0.263 in assay [1] (first compound 0.8 µM); 0.263 in assay [1] (first compound 2.53 µM). Besides, the relative viability in assay [1] (first compound 8 µM) was found to be 0.234; in assay [2] (first compound 0.8 µM) it was 0.802; in assay [2] (first compound 2.53 µM) it was 0.837; in assay [2] (first compound 8 µM) it was 0.738; in assay [3] (first compound 0.8 µM), 0.407; in assay [3] (first compound 2.53 µM), 0.39. In assay [3] (first compound 8 µM), the relative viability turned out to be 0.396.
Turning to HCC-78, the relative viability in the assay with RO-3306 + Foretinib (first compound 0.01 µM) is 0.487; with RO-3306 + Foretinib (first compound 0.03162 µM) it was 0.568; with RO-3306 + Foretinib (first compound 0.1 µM), 0.595; in the assay with RO-3306 + Foretinib (first compound 0.3162 µM), 0.564; with RO-3306 + Foretinib (first compound 1 µM), 0.573; with RO-3306 + Olaparib (first compound 0.01 µM), 0.849. Besides, the relative viability with RO-3306 + Olaparib (first compound 0.03162 µM) stood at 0.714; with RO-3306 + Olaparib (first compound 0.1 µM), 0.93; with RO-3306 + Olaparib (first compound 0.3162 µM), 0.938; with RO-3306 + Olaparib (first compound 1 µM), 0.762; in assay [1] (first compound 0.8 µM), 0.691; in assay [1] (first compound 2.53 µM), 0.375. The relative viability turned out to be 0.433 in assay [1] (first compound 8 µM); 0.349 in assay [2] (first compound 0.8 µM); 0.298 in assay [2] (first compound 2.53 µM); 0.289 in assay [2] (first compound 8 µM); 0.908 in assay [3] (first compound 0.8 µM); 0.816 in assay [3] (first compound 2.53 µM). The relative viability in assay [3] (first compound 8 µM) came out at 0.765.
Take PC-3 [JPC-3]: the relative viability was determined as 1.01 in the assay with RO-3306 + Foretinib (first compound 0.01 µM); 1 with RO-3306 + Foretinib (first compound 0.03162 µM); 1.01 in the assay with RO-3306 + Foretinib (first compound 0.1 µM); 1.07 with RO-3306 + Foretinib (first compound 0.3162 µM); 1.03 in the assay with RO-3306 + Foretinib (first compound 1 µM); 1.21 with RO-3306 + Olaparib (first compound 0.01 µM). In addition, the relative viability with RO-3306 + Olaparib (first compound 0.03162 µM) worked out at 1.07; with RO-3306 + Olaparib (first compound 0.1 µM) it was 1.11; with RO-3306 + Olaparib (first compound 0.3162 µM) it was 1.17; in the assay with RO-3306 + Olaparib (first compound 1 µM), 1.12; in assay [1] (first compound 0.8 µM) it was 0.819; in assay [1] (first compound 2.53 µM), 0.838. Besides, the relative viability stood at 0.767 in assay [1] (first compound 8 µM); 1.18 in assay [2] (first compound 0.8 µM); 0.995 in assay [2] (first compound 2.53 µM); 1.02 in assay [2] (first compound 8 µM); 1.09 in assay [3] (first compound 2.53 µM); 1.1 in assay [3] (first compound 8 µM).
As to NCI-H2126, the relative viability was 1.58 in the assay with RO-3306 + Foretinib (first compound 0.01 µM); 0.914 with RO-3306 + Foretinib (first compound 0.03162 µM); 1.26 with RO-3306 + Foretinib (first compound 0.1 µM); 1.19 with RO-3306 + Foretinib (first compound 0.3162 µM); 1.01 with RO-3306 + Foretinib (first compound 1 µM); 0.945 with RO-3306 + Olaparib (first compound 0.01 µM). The relative viability with RO-3306 + Olaparib (first compound 0.03162 µM) worked out at 0.901; with RO-3306 + Olaparib (first compound 0.1 µM), 0.902; with RO-3306 + Olaparib (first compound 0.3162 µM), 0.9; in the assay with RO-3306 + Olaparib (first compound 1 µM), 0.932; in assay [1] (first compound 0.8 µM), 0.934; in assay [1] (first compound 2.53 µM), 0.887. For the same cell line, the relative viability amounted to 0.769 in assay [1] (first compound 8 µM); 0.878 in assay [2] (first compound 0.8 µM); 0.768 in assay [2] (first compound 2.53 µM); 0.773 in assay [2] (first compound 8 µM); 0.999 in assay [3] (first compound 0.8 µM); 0.878 in assay [3] (first compound 2.53 µM). The relative viability in assay [3] (first compound 8 µM) was 0.803.
Consider LK-2, for which the relative viability with RO-3306 + Foretinib (first compound 0.01 µM) amounted to 1.28; with RO-3306 + Foretinib (first compound 0.1 µM), 1.5; with RO-3306 + Foretinib (first compound 0.3162 µM), 1.17; with RO-3306 + Foretinib (first compound 1 µM) it was 1.37; with RO-3306 + Olaparib (first compound 0.01 µM), 0.735; in the assay with RO-3306 + Olaparib (first compound 0.03162 µM), 0.566. For the same cell line, the relative viability in the assay with RO-3306 + Olaparib (first compound 0.1 µM) was determined as 0.841; in the assay with RO-3306 + Olaparib (first compound 0.3162 µM), 0.577; with RO-3306 + Olaparib (first compound 1 µM), 0.734; in assay [1] (first compound 0.8 µM), 0.174; in assay [1] (first compound 2.53 µM), 0.188; in assay [1] (first compound 8 µM) it was 0.189. In addition, the relative viability was 1.08 in assay [2] (first compound 0.8 µM); 1.16 in assay [2] (first compound 2.53 µM); 1.05 in assay [2] (first compound 8 µM); 0.918 in assay [3] (first compound 0.8 µM); 0.845 in assay [3] (first compound 2.53 µM); 0.816 in assay [3] (first compound 8 µM).
